One assay relates to A2780 cells. Put plainly: Cisplatin-dependent cell killing assay (calcein-AM, flow cytometry). To be noted: in presence of 50 nM RAM0; 48 hours; p<0.01. The assay is classed as cell-based, human. The method, then: Data are the means±standard deviation of 9 independent experiments.
After 48 hours of incubation cells were detached with Accutase™, labeled with calcein-AM and the level of calcein fluorescence was determined by flow cytometry. The mean fluorescence intensity in the absence of any drug or antibody was set to 1 to normalize for interassay variations. The mean fluorescent intensities were blotted against the cisplatin concentration and the half maximum active concentrations of cisplatin (EC50-values) were calculated.

The subject of a further assay is A2780 xenografts. Nature of the assay: A2780 ovarian cancer xenograft in Mf1 nude mice (tumor growth). The class given is in vivo, human. To be noted: monotherapy; RAM0 15 mg/kg every other day or cisplatin once a week. As to the method: Tumor weights are indicated after treatment of inoculated mice with a human control IgG or with RAM0. Antibodies were applied either alone or in combination with cisplatin.
This effect is of high relevance, in particular if it can also be observed in vivo. This was explored in female Mf1 nude mice inoculated with A2780 xenografts (FIG. 5). Mice (n=10/group) were inoculated with 1*10^6 A2780 cells resuspended in matrigel. […] Cisplatin was administered once a week starting on day 2 after xenograft inoculation.
(A xenograft is tissue or cells of one species grown in another, often human tumour cells in immunodeficient mice.)

The subject of assay [1] is A2780adr ovarian cancer cells. Nature of the assay: Induction of apoptosis (caspase 3 activity) in doxorubicin-resistant ovarian cancer cells. The class given is cell-based, human. To be noted: agent alone; 72 hours of treatment. The method, then:
The percentage increased caspase 3 activity over non-treated cells is indicated. Cells were treated with a human isotype control IgG (Control IgG), anti-MIF antibody RAM0 or RAM9 alone, a combination of control IgG and doxorubicin (Control IgG+Dox), doxorubicin alone (Dox) or a combination of anti-MIF antibody and doxorubicin (RAM0+Dox or RAM9+Dox).
The induction of apoptosis was assessed by detection of caspase 3 activity after 72 hours of treatment.

Assay [2] has as its system BxPC3 human pancreatic cancer cells. Put plainly: Orthotopic BxPC3 xenograft model for pancreatic cancer in nude mice (survival). The class given is in vivo. To be noted: monotherapy, gemcitabine 100 mg/kg or RAM9 60 mg/kg alone. As to the method:
Control groups were left untreated (left and right panel, dotted black line) or were treated with a control human monoclonal antibody (Control IgG, left panel, solid grey line) or with gemcitabine alone (Gemcitabine, left panel, solid black line). The survival curves represent the points in time when animals had to be sacrificed in accordance with UK Home Office Guidance.
BxPC3 cells are derived from a human pancreatic adenocarcinoma and grow inside the pancreas once they have been injected orthotopically in nude mice and present as a solid tumor. CD1-Foxn1/nu nude mice are orthotopically inoculated with 1×10^6 BxPC3 cells (injection of 30 μl matrigel:tumor cell suspension into the pancreas) and the tumor was allowed to establish for 7 days. […] Additional control groups were left untreated or received a control human IgG1 monoclonal antibody. The growth of internal tumors was judged by external signs (e.g. abdominal distension causing more than 20% increase in normal body weight, or a 20% loss in normal body weight) or clinical signs (e.g. dyspnoea, jaundice, neurological signs, digestive disturbances). Animals reaching the home office limit according to the UK home office guidance were sacrificed (for animal welfare reasons). The resulting survival curve was used as primary outcome of the study.

Assay [3] deals with Colo357 human pancreatic cancer cell line. Nature of the assay: Orthotopic Colo357 xenograft model for pancreatic cancer in nude mice (survival, tumor volume, microvessel density). To be noted: monotherapy. The assay is classed as in vivo. The method, then:
Control groups were left untreated or were treated with gemcitabine alone (Gem) or a control human monoclonal antibody alone (Control) or with a control human monoclonal antibody in combination with gemcitabine (Control+Gem). (A) Survival curves representing the points in time when animals had to be sacrificed in accordance with UK Home Office Guidance. (B) Tumor volume was measured in as subset of animals after animals had been sacrificed on day 20 after cell implantation. (C) After treatment, mice bearing a Colo357 xenograft were injected i.v. with the FITC-conjugated tomato lectin to visualize the blood vessels on day 12. Microvessel density was quantified using ImagePro Plus software (Image-Pro plus, Media Cybernetics) and vessel density was expressed as the mean percentage of total surface area.
CD1-Foxn1/nu nude mice are orthotopically inoculated with 1×10^5 Colo357 cells (injection of 30 μl matrigel:tumor cell suspension into the pancreas) and the tumor was allowed to establish for 7 days. […]
We further analyzed […] vessel density in a small cohort of animals. […] Cell nuclei were stained using propidium iodide, and vessels were visualized using confocal microscopy (Zeiss LSM 510 META), and microvessel density was quantified using ImagePro Plus software (Image-Pro plus, Media Cybernetics). Vessel density was expressed as the mean

For another assay, the system named is LnCAP cells. Put plainly: Mitoxantrone-dependent cell killing assay (calcein-AM, flow cytometry). The assay is classed as cell-based, human. To be noted: for EC50: Homo sapiens, LNCaP, 48 h, n=10. The method, then: The single values as well as the mean±standard deviation of 10 independent experiments are shown.
After 48 hours of incubation cells were detached with Accutase™, labeled with calcein-AM and the level of calcein fluorescence was determined by flow cytometry. The mean fluorescence intensity in the absence of any drug or antibody was set to 1 to normalize for interassay variations. The mean fluorescent intensities were plotted against the mitoxantrone concentration and the half maximum active concentrations of mitoxantrone (EC50-values) were calculated.

The values below come from US20150071942A1, “COMBINATION THERAPY OF ANTI-MIF ANTIBODIES AND CHEMOTHERAPEUTICS” (Baxter Healthcare SA, priority 2012, published 2015).

As usually defined, the EC50 is the concentration that produces a half-maximal response.

As to `N.N.[Cl][Pt][Cl]` [Cisplatin, reference compound], the EC50-value of cisplatin result in the assay with A2780 cells is on record as “reduced significantly”. In the assay on A2780 xenografts, the tumor growth entry was “did not have any effect on tumor growth”.
As to `COc1cccc2c1C(=O)c1c(O)c3c(c(O)c1C2=O)C[C@@](O)(C(=O)CO)C[C@@H]3O[C@H]1C[C@H](N)[C@H](O)[C@H](C)O1` [Doxorubicin, reference compound], the “caspase 3 activity” value in assay [1] was “significant but minor enhanced caspase 3 activity”.
Turning to `Nc1ccn([C@@H]2O[C@H](CO)[C@@H](O)C2(F)F)c(=O)n1` [Gemcitabine, reference compound], in assay [2], the “survival of the xenografted mice” value is reported as “only marginally prolonged the survival”. Besides, in assay [3] (day 12, FITC-conjugated tomato lectin), the “blood vessel density in the tumour microenvironment” value is “Neither gemcitabine nor RAM0 have a significant effect”. Also, the survival entry in assay [3] (gemcitabine 100 mg/kg or RAM0 60 mg/kg alone, i.p., Colo357 in nude mice) is “only prolonged survival to a marginal and statistically insignificant extent”.
For `O=C1c2c(O)ccc(O)c2C(=O)c2c(NCCNCCO)ccc(NCCNCCO)c21` [mitoxantrone, Mitoxantrone], the results for the EC50 in the assay with LnCAP cells (in presence of 100 nM RAM0) and with LnCAP cells (mitoxantrone alone) were 0.97 nM and 1.6 nM, respectively. Besides, the “mean EC50 of mitoxantrone” value in the assay with LnCAP cells (in presence of 100 nM human isotype control antibody, compared to mitoxantrone alone) is reported as “identical mean EC50”.
